Structures are written as SMILES. Calls of active or inactive are those of the source. No cut-off for these calls is given here.

A short description of this experiment: Depletion of lysosomal cystine in cystinotic fibroblasts GM00008 at 50 uM after 72 hrs. It is filed as functional, cell-based. The conditions noted are these: Fibroblast.

As to `CCCCCCCCCC(=O)NCCSSCCNC(=O)CCCCCCCCC`, the result was Active.

Regarding `NCCS`, the outcome was Active.

Values taken from ChEMBL document CHEMBL1142295, “A potential new prodrug for the treatment of cystinosis: design, synthesis and in-vitro evaluation” (Bioorg Med Chem Lett, 2008).
